Calls of active or inactive are those of the source. No cut-off for these calls is given here.
Key:
[1] = molecular target: Receptor-type tyrosine-protein kinase FLT3 (Homo sapiens) (UniProt P36888); settings: Compound concentration 1000.0 nM
[2] = molecular target: Cyclin-dependent kinase 8 (Homo sapiens) (UniProt P49336); settings: Compound concentration 1000.0 nM
[3] = molecular target: Mitogen-activated protein kinase 6 (Homo sapiens) (UniProt Q16659); settings: Compound concentration 1000.0 nM
[4] = molecular target: Cyclin-dependent kinase 11B (Homo sapiens) (UniProt P21127); settings: Compound concentration 1000.0 nM
[5] = molecular target: Receptor tyrosine-protein kinase erbB-4 (Homo sapiens) (UniProt Q15303); settings: Compound concentration 1000.0 nM
[6] = molecular target: Citron Rho-interacting kinase (Homo sapiens) (UniProt O14578); settings: Compound concentration 1000.0 nM
[7] = molecular target: Tyrosine-protein kinase Fer (Homo sapiens) (UniProt P16591); settings: Compound concentration 1000.0 nM
Tyrosine-protein kinase Fer (Homo sapiens), sequence (P16591 whole entry, looked up): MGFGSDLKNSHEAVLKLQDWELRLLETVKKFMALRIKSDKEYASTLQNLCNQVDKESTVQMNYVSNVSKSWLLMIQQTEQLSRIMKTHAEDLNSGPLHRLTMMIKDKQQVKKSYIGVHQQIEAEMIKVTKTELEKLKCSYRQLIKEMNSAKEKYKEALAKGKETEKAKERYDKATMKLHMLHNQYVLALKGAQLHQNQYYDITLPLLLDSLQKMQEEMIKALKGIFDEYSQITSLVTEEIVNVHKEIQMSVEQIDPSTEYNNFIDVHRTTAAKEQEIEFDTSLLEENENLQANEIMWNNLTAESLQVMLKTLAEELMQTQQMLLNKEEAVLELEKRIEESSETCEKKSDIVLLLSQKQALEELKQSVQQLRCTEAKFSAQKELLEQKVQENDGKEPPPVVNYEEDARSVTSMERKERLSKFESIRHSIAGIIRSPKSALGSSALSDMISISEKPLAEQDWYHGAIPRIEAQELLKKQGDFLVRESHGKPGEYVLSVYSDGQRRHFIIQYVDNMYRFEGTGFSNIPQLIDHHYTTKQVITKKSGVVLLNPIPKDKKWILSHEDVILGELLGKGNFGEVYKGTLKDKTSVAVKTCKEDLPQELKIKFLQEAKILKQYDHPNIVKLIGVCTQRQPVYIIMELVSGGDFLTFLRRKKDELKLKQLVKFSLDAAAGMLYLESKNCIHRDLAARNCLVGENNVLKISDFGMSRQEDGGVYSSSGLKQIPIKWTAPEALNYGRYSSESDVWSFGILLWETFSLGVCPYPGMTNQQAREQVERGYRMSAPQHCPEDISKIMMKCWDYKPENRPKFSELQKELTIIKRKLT

[8] = molecular target: Rho-associated protein kinase 2 (Homo sapiens) (UniProt O75116); settings: Compound concentration 1000.0 nM
[9] = molecular target: Serine/threonine-protein kinase RIO1 (Homo sapiens) (UniProt Q9BRS2); settings: Compound concentration 1000.0 nM
[10] = molecular target: Tyrosine-protein kinase ZAP-70 (Homo sapiens) (UniProt P43403); settings: Compound concentration 1000.0 nM
Tyrosine-protein kinase ZAP-70 (Homo sapiens), sequence (P43403 whole entry): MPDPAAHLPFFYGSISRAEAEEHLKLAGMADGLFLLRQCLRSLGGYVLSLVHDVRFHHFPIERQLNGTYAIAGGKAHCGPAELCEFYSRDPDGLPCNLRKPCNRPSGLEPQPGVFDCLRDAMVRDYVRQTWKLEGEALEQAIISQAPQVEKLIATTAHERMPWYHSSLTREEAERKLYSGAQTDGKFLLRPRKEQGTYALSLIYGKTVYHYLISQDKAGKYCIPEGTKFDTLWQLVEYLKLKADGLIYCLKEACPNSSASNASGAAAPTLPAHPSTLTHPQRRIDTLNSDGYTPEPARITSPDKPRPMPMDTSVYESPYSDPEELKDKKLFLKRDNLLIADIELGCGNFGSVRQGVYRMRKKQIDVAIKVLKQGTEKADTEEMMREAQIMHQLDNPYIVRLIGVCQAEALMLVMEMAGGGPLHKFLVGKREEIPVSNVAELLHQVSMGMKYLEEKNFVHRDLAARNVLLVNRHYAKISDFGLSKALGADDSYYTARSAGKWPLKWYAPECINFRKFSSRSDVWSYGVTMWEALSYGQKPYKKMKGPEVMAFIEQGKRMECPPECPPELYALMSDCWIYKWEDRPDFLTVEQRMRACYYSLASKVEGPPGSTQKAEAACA

[11] = molecular target: T1, Alpha-2B adrenergic receptor (Homo sapiens) (UniProt P18089); settings: Compound concentration 10.0 uM
T1 sequence (whole entry): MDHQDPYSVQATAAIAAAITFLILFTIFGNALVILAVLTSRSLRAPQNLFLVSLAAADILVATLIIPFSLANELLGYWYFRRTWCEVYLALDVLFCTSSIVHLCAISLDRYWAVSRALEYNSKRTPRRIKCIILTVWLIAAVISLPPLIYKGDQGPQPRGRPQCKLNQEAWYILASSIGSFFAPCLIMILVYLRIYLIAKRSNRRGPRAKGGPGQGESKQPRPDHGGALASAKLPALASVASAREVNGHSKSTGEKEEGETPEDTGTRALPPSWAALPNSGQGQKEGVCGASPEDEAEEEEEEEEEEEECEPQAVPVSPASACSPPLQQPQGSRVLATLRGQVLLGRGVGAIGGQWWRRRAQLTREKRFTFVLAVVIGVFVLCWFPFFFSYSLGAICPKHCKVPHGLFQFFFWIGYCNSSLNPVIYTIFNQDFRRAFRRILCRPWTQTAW

[12] = molecular target: Serine/threonine-protein kinase ULK1 (Homo sapiens) (UniProt O75385); settings: Compound concentration 1000.0 nM
[13] = molecular target: Casein kinase I isoform delta (Homo sapiens) (UniProt P48730); settings: Compound concentration 1000.0 nM
[14] = molecular target: Serine/threonine-protein kinase D1 (Homo sapiens) (UniProt Q15139); settings: Compound concentration 1000.0 nM
[15] = molecular target: Serine/threonine-protein kinase N1 (Homo sapiens) (UniProt Q16512); settings: Compound concentration 1000.0 nM
Serine/threonine-protein kinase N1 (Homo sapiens), sequence (Q16512 2-942 limits assumed): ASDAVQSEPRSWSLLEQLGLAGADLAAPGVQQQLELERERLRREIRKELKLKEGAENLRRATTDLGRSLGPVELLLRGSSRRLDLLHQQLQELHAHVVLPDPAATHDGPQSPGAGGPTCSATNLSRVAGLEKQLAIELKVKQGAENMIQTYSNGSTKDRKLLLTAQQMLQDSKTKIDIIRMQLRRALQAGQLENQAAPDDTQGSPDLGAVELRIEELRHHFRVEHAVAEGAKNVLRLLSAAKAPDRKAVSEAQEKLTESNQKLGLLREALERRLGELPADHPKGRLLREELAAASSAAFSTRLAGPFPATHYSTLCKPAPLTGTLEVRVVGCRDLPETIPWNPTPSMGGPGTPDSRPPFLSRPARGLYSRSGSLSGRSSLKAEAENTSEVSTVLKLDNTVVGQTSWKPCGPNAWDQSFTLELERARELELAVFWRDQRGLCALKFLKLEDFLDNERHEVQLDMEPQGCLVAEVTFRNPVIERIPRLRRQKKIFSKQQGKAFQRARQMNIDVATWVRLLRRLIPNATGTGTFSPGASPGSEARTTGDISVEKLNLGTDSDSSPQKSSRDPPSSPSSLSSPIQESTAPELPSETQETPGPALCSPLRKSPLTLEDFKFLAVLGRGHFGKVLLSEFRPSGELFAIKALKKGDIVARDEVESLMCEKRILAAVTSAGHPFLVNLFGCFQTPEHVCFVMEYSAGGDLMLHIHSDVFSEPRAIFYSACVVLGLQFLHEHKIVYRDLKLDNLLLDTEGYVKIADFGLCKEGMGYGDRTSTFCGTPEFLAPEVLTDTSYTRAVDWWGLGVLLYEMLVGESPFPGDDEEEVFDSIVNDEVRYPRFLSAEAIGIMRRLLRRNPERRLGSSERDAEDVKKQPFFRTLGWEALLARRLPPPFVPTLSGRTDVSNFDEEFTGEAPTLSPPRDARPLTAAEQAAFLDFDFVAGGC

[16] = molecular target: GABA-A receptor; anion channel (Rattus norvegicus) (UniProt O09028+P15431+P18506+P18508+P19969+P20236+P23574+P23576+P28471+P28473+P30191+P62813+P63079+P63138+Q91ZM7+Q9ES14); experiment: BZD (central) Eurofins-Cerep binding assay; assay type: protein-complex assay; parameters: ligand concentration 0.4 nM; settings: filed as agonist, Compound concentration 10.0 uM
[17] = molecular target: Cystic fibrosis transmembrane conductance regulator (Homo sapiens, UniProt P13569); experiment: CSE-HRP surface expression (Cell surface expression-horseradish peroxidase) assay
[18] = molecular target: Bone morphogenetic protein receptor type-1B (Homo sapiens) (UniProt O00238); settings: Compound concentration 1000.0 nM
[19] = molecular target: Serine/threonine-protein kinase STK11 (Homo sapiens) (UniProt Q15831); settings: Compound concentration 1000.0 nM
[20] = molecular target: Misshapen-like kinase 1 (Homo sapiens) (UniProt Q8N4C8); settings: Compound concentration 1000.0 nM
Misshapen-like kinase 1 (Homo sapiens), sequence (Q8N4C8 whole entry, looked up): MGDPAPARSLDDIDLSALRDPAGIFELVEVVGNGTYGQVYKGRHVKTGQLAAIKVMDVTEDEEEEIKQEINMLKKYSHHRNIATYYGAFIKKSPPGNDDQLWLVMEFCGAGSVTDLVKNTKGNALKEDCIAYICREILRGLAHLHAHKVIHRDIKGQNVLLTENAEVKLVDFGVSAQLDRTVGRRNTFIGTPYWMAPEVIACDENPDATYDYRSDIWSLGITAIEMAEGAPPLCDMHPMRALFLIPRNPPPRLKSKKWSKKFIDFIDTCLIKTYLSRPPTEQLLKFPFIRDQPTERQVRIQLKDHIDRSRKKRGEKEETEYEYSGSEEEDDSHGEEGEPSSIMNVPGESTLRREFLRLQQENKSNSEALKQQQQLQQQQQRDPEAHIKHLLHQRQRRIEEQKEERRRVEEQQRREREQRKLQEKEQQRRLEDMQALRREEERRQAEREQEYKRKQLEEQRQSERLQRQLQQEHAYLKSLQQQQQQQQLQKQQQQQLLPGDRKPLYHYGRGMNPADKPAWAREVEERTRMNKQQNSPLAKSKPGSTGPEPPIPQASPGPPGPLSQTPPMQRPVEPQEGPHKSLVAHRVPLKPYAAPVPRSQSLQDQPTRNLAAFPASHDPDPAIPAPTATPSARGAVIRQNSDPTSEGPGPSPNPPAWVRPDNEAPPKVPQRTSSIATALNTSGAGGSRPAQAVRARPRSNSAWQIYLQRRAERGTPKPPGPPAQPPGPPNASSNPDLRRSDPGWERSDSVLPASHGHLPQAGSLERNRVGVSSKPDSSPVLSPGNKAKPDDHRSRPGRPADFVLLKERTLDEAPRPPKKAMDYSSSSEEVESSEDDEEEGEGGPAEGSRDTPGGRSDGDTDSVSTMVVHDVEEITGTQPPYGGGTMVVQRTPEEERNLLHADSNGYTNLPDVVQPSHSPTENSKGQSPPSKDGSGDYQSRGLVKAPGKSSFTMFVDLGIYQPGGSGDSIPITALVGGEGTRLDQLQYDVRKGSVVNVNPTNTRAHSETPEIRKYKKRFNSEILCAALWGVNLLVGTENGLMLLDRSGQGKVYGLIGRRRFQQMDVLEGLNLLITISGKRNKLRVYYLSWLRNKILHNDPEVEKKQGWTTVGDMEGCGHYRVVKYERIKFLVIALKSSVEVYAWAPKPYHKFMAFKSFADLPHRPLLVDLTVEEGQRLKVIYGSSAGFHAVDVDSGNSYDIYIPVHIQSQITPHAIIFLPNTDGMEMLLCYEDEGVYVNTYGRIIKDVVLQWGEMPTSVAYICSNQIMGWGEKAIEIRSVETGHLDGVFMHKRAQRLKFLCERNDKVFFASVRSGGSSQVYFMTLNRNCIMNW

[21] = molecular target: Interferon-induced, double-stranded RNA-activated protein kinase (Homo sapiens) (UniProt P19525); settings: Compound concentration 1000.0 nM
[22] = molecular target: TGF-beta receptor type-1 (Homo sapiens) (UniProt P36897); settings: Compound concentration 1000.0 nM
[23] = molecular target: Serine/threonine-protein kinase SIK3 (Homo sapiens) (UniProt Q9Y2K2); settings: Compound concentration 1000.0 nM
[24] = tested on: Tyrosine-protein kinase ABL1 (Homo sapiens), P00519 [Q252H]; settings: Compound concentration 1000.0 nM
[25] = molecular target: B2 bradykinin receptor (Homo sapiens) (UniProt P30411); experiment: B2 (h) Eurofins-Cerep binding assay; parameters: ligand concentration 0.3 nM; settings: filed as agonist, Compound concentration 10.0 uM
[26] = tested on: Tyrosine-protein kinase ABL1 (Homo sapiens), P00519 [F317I]; settings: Compound concentration 1000.0 nM
[27] = molecular target: Cyclin-dependent kinase 4 (Homo sapiens) (UniProt P11802); settings: Compound concentration 1000.0 nM
[28] = molecular target: Serine/threonine-protein kinase 32B (Homo sapiens) (UniProt Q9NY57); settings: Compound concentration 1000.0 nM
[29] = molecular target: Mitogen-activated protein kinase kinase kinase 14 (Homo sapiens) (UniProt Q99558); settings: Compound concentration 1000.0 nM
[30] = molecular target: Ephrin type-A receptor 6 (Homo sapiens) (UniProt Q9UF33); settings: Compound concentration 1000.0 nM
[31] = tested on: Phosphatidylinositol 4,5-bisphosphate 3-kinase catalytic subunit alpha isoform (Homo sapiens), P42336 [E542K]; settings: Compound concentration 1000.0 nM
[32] = molecular target: Mitogen-activated protein kinase kinase kinase kinase 3 (Homo sapiens) (UniProt Q8IVH8); settings: Compound concentration 1000.0 nM
[33] = molecular target: Prostaglandin E2 receptor EP2 subtype (Homo sapiens) (UniProt P43116); experiment: EP2 (h) Eurofins-Cerep binding assay; parameters: ligand concentration 3 nM; settings: filed as agonist, Compound concentration 10.0 uM
Prostaglandin E2 receptor EP2 subtype (Homo sapiens), sequence (P43116 whole entry): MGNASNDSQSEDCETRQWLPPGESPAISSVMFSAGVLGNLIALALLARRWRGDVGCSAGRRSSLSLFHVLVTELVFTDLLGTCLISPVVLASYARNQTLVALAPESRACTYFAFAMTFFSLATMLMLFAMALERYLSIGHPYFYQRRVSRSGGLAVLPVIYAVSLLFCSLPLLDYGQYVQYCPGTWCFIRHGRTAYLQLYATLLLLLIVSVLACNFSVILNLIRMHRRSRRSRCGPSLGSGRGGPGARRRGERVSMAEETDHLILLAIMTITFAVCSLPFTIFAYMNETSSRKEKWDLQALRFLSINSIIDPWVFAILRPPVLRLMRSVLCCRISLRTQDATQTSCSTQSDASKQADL

[34] = molecular target: Serine/threonine-protein kinase MARK2 (Homo sapiens) (UniProt Q7KZI7); settings: Compound concentration 1000.0 nM
[35] = tested on: Leucine-rich repeat serine/threonine-protein kinase 2 (Homo sapiens), Q5S007 [G2019S]; settings: Compound concentration 1000.0 nM
[36] = molecular target: cAMP-dependent protein kinase catalytic subunit PRKX (Homo sapiens) (UniProt P51817); settings: Compound concentration 1000.0 nM
cAMP-dependent protein kinase catalytic subunit PRKX (Homo sapiens), sequence (P51817 whole entry): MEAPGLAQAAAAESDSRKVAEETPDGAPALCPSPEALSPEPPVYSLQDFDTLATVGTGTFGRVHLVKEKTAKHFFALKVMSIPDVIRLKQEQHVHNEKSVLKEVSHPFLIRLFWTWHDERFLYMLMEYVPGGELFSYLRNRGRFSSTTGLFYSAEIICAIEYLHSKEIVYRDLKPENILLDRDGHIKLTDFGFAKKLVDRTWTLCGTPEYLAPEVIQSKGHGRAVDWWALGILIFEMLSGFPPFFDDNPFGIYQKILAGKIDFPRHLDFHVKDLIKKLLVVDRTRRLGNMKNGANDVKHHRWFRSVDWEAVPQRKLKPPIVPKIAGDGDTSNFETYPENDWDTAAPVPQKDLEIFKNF

[37] = molecular target: Endothelin-1 receptor (Homo sapiens) (UniProt P25101); experiment: ETA (h) Eurofins-Cerep binding assay; parameters: ligand concentration 0.03 nM; settings: filed as agonist, Compound concentration 10.0 uM
[38] = molecular target: Serine/threonine-protein kinase PAK 3 (Homo sapiens) (UniProt O75914); settings: Compound concentration 1000.0 nM
Serine/threonine-protein kinase PAK 3 (Homo sapiens), sequence (O75914 whole entry, looked up): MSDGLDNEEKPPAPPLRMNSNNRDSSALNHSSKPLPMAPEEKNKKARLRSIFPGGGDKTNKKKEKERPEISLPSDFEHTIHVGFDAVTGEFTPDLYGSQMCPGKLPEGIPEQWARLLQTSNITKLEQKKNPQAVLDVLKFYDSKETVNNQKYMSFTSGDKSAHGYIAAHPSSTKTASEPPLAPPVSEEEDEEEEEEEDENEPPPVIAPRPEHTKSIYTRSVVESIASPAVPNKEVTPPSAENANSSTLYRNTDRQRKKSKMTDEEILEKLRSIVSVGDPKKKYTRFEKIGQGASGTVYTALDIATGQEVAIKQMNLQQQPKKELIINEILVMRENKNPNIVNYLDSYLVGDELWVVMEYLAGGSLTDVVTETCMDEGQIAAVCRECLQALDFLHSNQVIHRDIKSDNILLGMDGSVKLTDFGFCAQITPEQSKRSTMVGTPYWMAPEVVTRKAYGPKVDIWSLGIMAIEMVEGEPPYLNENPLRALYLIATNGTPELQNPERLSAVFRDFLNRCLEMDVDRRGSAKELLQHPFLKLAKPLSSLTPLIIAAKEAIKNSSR

Compound: COc1ccc2c(c1)O[C@@H](c1ccc(OC)c(OC)c1)C[C@H]2NC(=O)C1(c2ccc3c(c2)OC(F)(F)O3)CC1 [A-1596586]
- residual activity [1]: 80%
- residual activity [2]: 100%
- residual activity [3]: 100%
- residual activity [4]: 100%
- residual activity [5]: 90%
- residual activity [6]: 90%
- residual activity [7]: 100%
- residual activity [8]: 78%
- residual activity [9]: 100%
- residual activity [10]: 71%
- inhibition [11]: 37.5%
- residual activity [12]: 75%
- residual activity [13]: 100%
- residual activity [14]: 95%
- residual activity [15]: 96%
- % Inhibition of Control Specific Binding (Mean n=2) [16]: -12.3%
- EC50 [17]: 130 nM (active)
- residual activity [18]: 71%
- residual activity [19]: 65%
- residual activity [20]: 77%
- residual activity [21]: 100%
- residual activity [22]: 100%
- residual activity [23]: 82%
- residual activity [24]: 93%
- % Inhibition of Control Specific Binding (Mean n=2) [25]: -13.5%
- residual activity [26]: 78%
- residual activity [27]: 95%
- residual activity [28]: 100%
- residual activity [29]: 87%
- residual activity [30]: 89%
- residual activity [31]: 79%
- residual activity [32]: 90%
- % Inhibition of Control Specific Binding (Mean n=2) [33]: 9.3%
- residual activity [34]: 92%
- residual activity [35]: 90%
- residual activity [36]: 83%
- % Inhibition of Control Specific Binding (Mean n=2) [37]: -6.9%
- residual activity [38]: 87%

Compound: COc1ccc2c(c1)O[C@H](c1ccc(OC)c(OC)c1)C[C@@H]2NC(=O)C1(c2ccc3c(c2)OC(F)(F)O3)CC1 [A-1596584]
- residual activity [1]: 83%
- residual activity [2]: 100%
- residual activity [3]: 100%
- residual activity [4]: 100%
- residual activity [5]: 94%
- residual activity [6]: 92%
- residual activity [7]: 100%
- residual activity [8]: 88%
- residual activity [9]: 100%
- residual activity [10]: 93%
- inhibition [11]: 19.6%
- residual activity [12]: 88%
- residual activity [13]: 92%
- residual activity [14]: 100%
- residual activity [15]: 100%
- % Inhibition of Control Specific Binding (Mean n=2) [16]: -49.6%
- EC50 [17]: 1000 nM (not active)
- residual activity [18]: 100%
- residual activity [19]: 100%
- residual activity [20]: 100%
- residual activity [21]: 100%
- residual activity [22]: 100%
- residual activity [23]: 95%
- residual activity [24]: 100%
- % Inhibition of Control Specific Binding (Mean n=2) [25]: -8.3%
- residual activity [26]: 100%
- residual activity [27]: 100%
- residual activity [28]: 100%
- residual activity [29]: 100%
- residual activity [30]: 100%
- residual activity [31]: 95%
- residual activity [32]: 100%
- % Inhibition of Control Specific Binding (Mean n=2) [33]: 13.1%
- residual activity [34]: 100%
- residual activity [35]: 100%
- residual activity [36]: 100%
- % Inhibition of Control Specific Binding (Mean n=2) [37]: 4%
- residual activity [38]: 100%

— ChEMBL document CHEMBL4507262, “Data for DCP probe A-1596586” (2021)
